Laboratory results published in patent US4877795A, “4H-quinolizin-4-one compounds useful for the treatment of allergic bronchial asthma, allergic rhinitis atropic dermatitis and the like” (Kissei Pharmaceutical Co., Ltd., priority 1987, dated 1989).

Legend:
[1] = system: IgG; experiment: Determination of Igs produced in in vitro culture: inhibition of IgG secreted by spleen cells (adoptive secondary immune response to DNP-As), ELISA; type: cell-based, BALB/c mice; settings: 4 days culture; for inhibition at 40 µg/mL: 40.0 μg/ml; for inhibition at 2.5 µg/mL: 2.5 μg/ml; for inhibition at 10 µg/mL: 10.0 μg/ml
Method in brief: (§1)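 Donor BALB/c mice primed i.p. with 5 μg DNP-As on alum; 5×10^7 spleen cells transferred i.v. into 600-rad-irradiated recipients, boosted likewise. After 4 weeks, recipient spleen cells (5×10^6 cells/ml) cultured ± compound 4 days at 37° C; secreted IgG/IgE quantified by ELISA, % inhibition vs untreated culture.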

[2] = system: IgE; experiment: Determination of Igs produced in in vitro culture: inhibition of IgE secreted by spleen cells (adoptive secondary immune response to DNP-As), ELISA; type: cell-based, BALB/c mice; settings: Mus musculus, 96 h, 4 days culture; for inhibition at 1 µg/mL: 1.0 μg/ml; for inhibition at 40 µg/mL: 40.0 μg/ml; for inhibition at 2.5 µg/mL: 2.5 μg/ml; for inhibition at 10 µg/mL: 10.0 μg/ml
Method in brief: as §1

## CSc1c(C#N)c(=O)n2cccc(C)c2c1C(=O)N1CCC(c2ccccc2)CC1 (single isomer, unassigned) [S-81A, 3-Cyano-9-methyl-2methylthio-1-(4-phenylpiperidinocarbonyl)-4H-quinolizin-4-one]
[1]; 1.0 μg/ml
  Inhibition % of IgG: 17%
[2]
  inhibition at 1 µg/mL: 46%

## CCCOC(=O)c1c(SC)c(C#N)c(=O)n2ccccc12 [S-7, Propyl 3-cyano-2-methylthio-4H-quinolizin-4-one-1-carboxylate]
[1]; Mus musculus, 96 h
  inhibition at 40 µg/mL: 24%
[2]
  inhibition at 40 µg/mL: 52%

## CSc1c(C#N)c(=O)n2ccccc2c1C(=O)Cc1ccc(C)c(C)c1 [S-101, 3-Cyano-1-(3,4-dimethylphenylacetyl)-2-methylthio-4H-quinolizin-4-one]
[1]; Mus musculus, 96 h
  inhibition at 40 µg/mL: 13%
[2]
  inhibition at 40 µg/mL: 58%

## CSc1c(C#N)c(=O)n2ccccc2c1C(=O)OC(C)CCc1ccccc1 (stereo not shown) [S-46, 1'-Methyl-3'-phenylpropyl 3-cyano-2-methylthio-4H-quinolizin-4-one-1-carboxylate]
[1]; Mus musculus, 96 h, 1.0 μg/ml
  inhibition at 1 µg/mL: 79%
[2]
  inhibition at 1 µg/mL: 90%

## CSc1c(C#N)c(=O)n2ccccc2c1C(=O)N1CCC2CCCCC21 (single isomer, unassigned) [S-85B, 3-Cyano-2-methylthio-1-(perhydroindol-1-yl-carbonyl)-4H-quinolizin-4-one]
[1]; Mus musculus, 96 h
  inhibition at 2.5 µg/mL: 19%
[2]
  inhibition at 2.5 µg/mL: 39%

## CSc1c(C#N)c(=O)n2ccccc2c1C(=O)Cc1ccccc1C [S-98, 3-Cyano-1-(2-methylphenylacetyl)-2-methylthio-4H-quinolizin-4-one]
[1]; Mus musculus, 96 h
  inhibition at 10 µg/mL: 13%
[2]
  inhibition at 10 µg/mL: 38%

## COC(=O)c1ccc(CNC(=O)c2c(SC)c(C#N)c(=O)n3ccccc23)cc1 [S-77]
[1]; Mus musculus, 96 h, 5.0 μg/ml
  inhibition at 5 µg/mL: 10%
[2]; 5.0 μg/ml
  inhibition at 5 µg/mL: 34%

## CCCC(=O)c1c(SC)c(C#N)c(=O)n2ccccc12 [S-93, 1-Butyryl-3-cyano-2-methylthio-4H-quinolizin-4-one]
[1]; Mus musculus, 96 h
  inhibition at 10 µg/mL: 31%
[2]
  inhibition at 10 µg/mL: 62%

## CSc1c(C#N)c(=O)n2ccccc2c1C(=O)OCc1ccc2c(c1)OCO2 [S-26, Piperonyl 3-cyano-2-methylthio-4H-quinolizin-4-one-1-carboxylate]
[1]; Mus musculus, 96 h
  inhibition at 40 µg/mL: 17%
[2]
  inhibition at 40 µg/mL: 48%

## CCCCSc1c(C#N)c(=O)n2ccccc2c1C(=O)OCC [S-58, Ethyl 3-cyano-2-butylthio-4H-quinolizin-4-one-1-carboxylate]
[1]; Mus musculus, 96 h
  inhibition at 10 µg/mL: 60%
[2]
  inhibition at 10 µg/mL: 89%

## CSc1c(C#N)c(=O)n2ccc(C)cc2c1C(=O)OCc1ccccc1 [S-28, Benzyl 3-cyano-8-menthyl-2-methylthio-4H-quinolizin-4-one-1-carboxylate]
[1]; Mus musculus, 96 h
  inhibition at 2.5 µg/mL: 24%
[2]
  inhibition at 2.5 µg/mL: 49%
